# Activity calls are given as the source filed them.
# Target: T1, Heat shock factor protein 1 (Mus musculus, UniProt P38532)
# T1 sequence (P38532 whole entry): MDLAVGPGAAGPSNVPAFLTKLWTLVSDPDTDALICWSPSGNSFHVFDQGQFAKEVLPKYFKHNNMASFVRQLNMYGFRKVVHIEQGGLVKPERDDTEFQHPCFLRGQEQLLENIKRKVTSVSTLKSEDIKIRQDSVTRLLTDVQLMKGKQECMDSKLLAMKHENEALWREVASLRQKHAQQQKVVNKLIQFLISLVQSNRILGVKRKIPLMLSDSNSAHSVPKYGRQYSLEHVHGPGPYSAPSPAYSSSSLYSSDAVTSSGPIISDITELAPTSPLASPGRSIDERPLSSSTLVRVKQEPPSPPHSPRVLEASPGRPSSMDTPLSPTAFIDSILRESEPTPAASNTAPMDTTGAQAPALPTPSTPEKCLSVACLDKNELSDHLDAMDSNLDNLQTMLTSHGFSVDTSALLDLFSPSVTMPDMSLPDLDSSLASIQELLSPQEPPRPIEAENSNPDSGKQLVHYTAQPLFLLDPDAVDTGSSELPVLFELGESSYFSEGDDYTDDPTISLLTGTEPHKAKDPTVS
# Assay: inhibition of MG132-induced HSE-luciferase signal, confirmation, cell-based, NIH3T3, luminescence, dose retest (AID 2382);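 also: NIH3T3 fibroblasts with HSF1-driven luciferase reporter stressed by proteasome inhibitor MG132; luminescence from HSF1-driven luciferase expression after 8 hours of MG132 stress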
# Format: functional
# Settings: not given
row,SMILES,EC50
1,CN(c1ccccc1)S(=O)(=O)c1nnc(NC(=O)COc2ccccc2F)s1,> 195 µM (not active)
2,CC(C)CC1Nc2ccc(C(=O)NCCCN3CCOCC3)cc2NC1=O (centres undefined),> 195 µM (not active)
3,Cc1cc([N+](=O)[O-])ccc1NC(=O)CCC(=O)N1CCCCC1,> 195 µM (not active)
4,COc1cc2cc(CN(C(=O)NC3CCCCC3)C3CCCC3)c(O)nc2cc1OC,> 195 µM (not active)
5,O=C(c1ccc2c(=O)n(Cc3ccccc3)c(=S)[nH]c2c1)N1CCOCC1,> 195 µM (not active)
6,CCSc1nnc(NC(=O)C(Cc2ccccc2)n2cccc2)s1 (centres undefined),> 195 µM (not active)
7,N#Cc1c(-c2ccc3c(c2)OCO3)csc1N,> 195 µM (not active)
8,C=CCn1c(SCC(=O)NCCc2ccccc2)nnc1C(C)NC(=O)c1cccs1 (centres undefined),> 195 µM (not active)
9,COc1ccc(NS(=O)(=O)c2ccc(-c3ccccn3)s2)cc1,> 195 µM (not active)
10,Cc1noc(C)c1CSCC(=O)Nc1ccc(S(=O)(=O)C(F)F)cc1,> 195 µM (not active)
11,C=C(C)Cn1c(NCCC)nc2c1c(=O)n(C)c(=O)n2C,> 195 µM (not active)
12,CCOc1ccc(N/C(=N/N)c2ccc3ccccc3n2)cc1,> 195 µM (not active)
13,COc1ccccc1C(=O)N/C(=C\c1cn(S(=O)(=O)N(C)C)c2ccccc12)C(=O)NCCN1CCOCC1,> 195 µM (not active)
14,CCN(CC)c1nc2c(c(=O)[nH]c(=O)n2C)n1CCOc1ccccc1,> 195 µM (not active)

# System: not listed separately
# Assay: Luminescence Cell-Based Dose Response HTS to Identify Inhibitors of 5'UTR Stem-Loop Driven Prion Protein mRNA Translation in H4 Neuroglioblastoma Cells. [Related pubchem assays: 1827 (Project Summary), 1813 (Primary HTS)]
# Format: functional
# Settings: not given
row,SMILES,EC50
1,O=C(NCCCN1CCOCC1)c1ccc(-n2nc(C(F)(F)F)cc2-c2cccs2)cc1,34.9 µM (active)
2,O=C(NNC(=O)C12CC3CC(CC(C3)C1)C2)c1ccccc1F,> 120 µM (not active)
3,Cc1cccc(-c2nnc3n2N=C(c2ccccc2)CS3)c1,> 120 µM (not active)

# Target: T2, Cytochrome P450 1A2 (Homo sapiens, UniProt P05177);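 also: PubChem cytochrome P450 panel assay, CYP1A2 panel member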
# T2 sequence (P05177 whole entry): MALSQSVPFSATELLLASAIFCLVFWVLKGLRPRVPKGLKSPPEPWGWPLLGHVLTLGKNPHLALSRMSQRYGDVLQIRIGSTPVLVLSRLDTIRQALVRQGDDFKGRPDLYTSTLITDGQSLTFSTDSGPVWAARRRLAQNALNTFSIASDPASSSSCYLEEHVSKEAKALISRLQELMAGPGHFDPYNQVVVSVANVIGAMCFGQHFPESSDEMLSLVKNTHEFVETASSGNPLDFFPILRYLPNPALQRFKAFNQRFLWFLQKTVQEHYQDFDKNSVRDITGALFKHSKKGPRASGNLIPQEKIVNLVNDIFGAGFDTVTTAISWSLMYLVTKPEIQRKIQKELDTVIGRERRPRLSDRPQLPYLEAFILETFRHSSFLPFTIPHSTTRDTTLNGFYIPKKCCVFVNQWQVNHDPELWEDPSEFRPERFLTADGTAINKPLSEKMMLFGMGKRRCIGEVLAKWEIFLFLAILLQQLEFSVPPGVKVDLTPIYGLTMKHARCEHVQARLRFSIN
# Settings: not given
row,SMILES,AC50
1,COC(=O)[C@@]1(Cc2ccc(F)cc2)[C@H]2c3cc(C(=O)N4CCCC4)n(Cc4ccccn4)c3C[C@H]2CN1C(=O)c1ccccc1,20 µM (inconclusive)
2,Cc1ccc2nc(CC(=O)c3ccc4ccccc4c3)c(O)nc2c1,2 µM (inconclusive)
3,COc1ccc(CC(=N)NOC(=O)Cc2ccccc2)cc1OC,14.1 µM (inconclusive)

# Target: Cytochrome P450 2C19 (Homo sapiens, UniProt P33261)
# Assay: Cytochrome panel assay with activity outcomes. Panel member name: p450-cyp2c19 Compounds with AC50 equal or less than 10 uM are considered active
# Format: functional
# Settings: read-out: AC50
# Cytochrome P450 2C19, sequence (P33261 whole entry): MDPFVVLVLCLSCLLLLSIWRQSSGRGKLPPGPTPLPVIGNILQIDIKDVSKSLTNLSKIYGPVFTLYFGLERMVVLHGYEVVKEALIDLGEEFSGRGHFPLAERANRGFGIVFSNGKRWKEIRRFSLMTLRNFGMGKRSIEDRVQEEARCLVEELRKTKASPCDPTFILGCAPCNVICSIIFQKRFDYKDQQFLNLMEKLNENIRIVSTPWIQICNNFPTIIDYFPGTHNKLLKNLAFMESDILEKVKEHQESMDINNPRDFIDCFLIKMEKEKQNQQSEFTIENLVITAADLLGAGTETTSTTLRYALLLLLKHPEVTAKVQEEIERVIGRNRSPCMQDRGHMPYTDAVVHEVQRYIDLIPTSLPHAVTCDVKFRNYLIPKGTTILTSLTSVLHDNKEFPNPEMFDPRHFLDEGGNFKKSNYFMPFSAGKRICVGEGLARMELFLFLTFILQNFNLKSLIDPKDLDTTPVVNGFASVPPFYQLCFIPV
row,SMILES,AC50
1,C[C@]12CC[C@H]3c4ccc(OC[C@H]5CO5)cc4CC[C@H]3[C@H]1CC[C@@H]2O,3.16 µM (inconclusive)
2,CS(=O)(=O)N1CCC2(CC1)CN(c1ccncc1)C2,20 µM (inconclusive)
3,N#CN(CC(N)=O)c1nc(N2CCCCC2)nc(N2CCCCC2)n1,22.4 µM (inconclusive)
4,Cc1n[nH]c(C)c1S(=O)(=O)N1CCC(C(=O)O)CC1,22.4 µM (inconclusive)
5,COC(=O)[C@@H]1CC[C@H](C)[C@@H](c2ccc(C)cc2)N1C(=O)c1ccc(/C=N\OC[C@@H](O)COCc2ccco2)cc1,2.51 µM (inconclusive)
6,Clc1ccc2c(c1)N(CCCN1CCCC13CCCCC3)c1ccccc1S2,5.01 µM (inconclusive)
7,COc1ccc(NC(=O)CC#N)cc1OC,0.00501 µM (inconclusive)
8,COC(=O)N1CCC2(CCCN(C(=O)Nc3cccc(C#N)c3)C2)CC1,10 µM (inconclusive)
9,COC(=O)[C@@]1(Cc2ccc(F)cc2)[C@H]2c3cc(C(=O)N4CCCC4)n(Cc4ccccn4)c3C[C@H]2CN1C(=O)c1ccccc1,39.8 µM (inconclusive)
10,Cc1ccc2nc(CC(=O)c3ccc4ccccc4c3)c(O)nc2c1,0.794 µM (inconclusive)
11,COc1ccc(CC(=N)NOC(=O)Cc2ccccc2)cc1OC,15.8 µM (inconclusive)
12,CC(C)OCCCNC(=O)C1CC(=O)N(C2CCCCCCC2)C1 (centres undefined),17.8 µM (inconclusive)
13,CC1(C)Cc2ccccc2C(NNC(=O)c2ccncc2)=N1,31.6 µM (inconclusive)

# Target: T3, Corticotropin-releasing factor receptor 2/Corticotropin-releasing factor-binding protein (Homo sapiens, UniProt P24387+Q13324)
# T3 sequence (Q13324 whole entry): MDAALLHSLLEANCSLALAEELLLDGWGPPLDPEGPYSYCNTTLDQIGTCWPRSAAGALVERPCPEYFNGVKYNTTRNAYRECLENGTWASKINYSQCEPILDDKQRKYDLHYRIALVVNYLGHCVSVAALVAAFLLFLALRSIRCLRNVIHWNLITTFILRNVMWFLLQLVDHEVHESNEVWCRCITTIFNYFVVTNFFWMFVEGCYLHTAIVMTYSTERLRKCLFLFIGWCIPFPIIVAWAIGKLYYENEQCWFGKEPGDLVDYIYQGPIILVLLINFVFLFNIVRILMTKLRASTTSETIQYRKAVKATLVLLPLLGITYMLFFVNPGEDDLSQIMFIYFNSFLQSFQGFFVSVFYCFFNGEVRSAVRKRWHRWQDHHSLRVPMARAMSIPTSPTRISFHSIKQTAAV
# T3 sequence (P24387 whole entry): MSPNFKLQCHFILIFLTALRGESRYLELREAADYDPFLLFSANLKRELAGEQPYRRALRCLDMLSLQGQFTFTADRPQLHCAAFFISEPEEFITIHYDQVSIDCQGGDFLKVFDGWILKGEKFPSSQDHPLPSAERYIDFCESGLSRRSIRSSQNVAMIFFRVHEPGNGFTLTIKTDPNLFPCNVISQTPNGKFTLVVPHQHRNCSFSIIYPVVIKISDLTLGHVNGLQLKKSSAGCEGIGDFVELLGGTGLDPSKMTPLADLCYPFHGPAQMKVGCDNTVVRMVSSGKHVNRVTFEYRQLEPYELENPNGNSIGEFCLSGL
# Assay: activators of CRF receptor 2 with binding protein – uHTS hits, confirmation (AID 602473)
# Format: functional
# Settings: read-out: EC50_Mean
row,SMILES,EC50
1,O=C(OCC(=O)N1N=C(c2ccc(Cl)cc2)CC1c1ccco1)c1ccco1 (centres undefined),> 53 µM (inactive)
2,COc1ccc(CN2CCSCC2)cc1C,12.7 µM (active)
3,CCC1CCCCN1Cc1ccc(OC)c(C)c1 (centres undefined),14 µM (active)
4,CCCn1c(SCC(=O)N2CC(=O)Nc3ccccc32)nc2ccccc21,> 53 µM (inactive)
5,CCc1nc2c(c(=O)c3ccccc3n2C)c(=O)n1C1CCCCCC1,6.21 µM (active)
6,CCCCCCc1cc2cc(C(=O)NCc3ccccc3)c(=N)oc2cc1O,4.2 µM (active)

# Target: Cytochrome P450 3A4 (Homo sapiens, UniProt P08684);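 also: CYP3A4 tested as one member of a cytochrome P450 panel screen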
# Settings: not given
# Cytochrome P450 3A4, sequence (P08684 whole entry): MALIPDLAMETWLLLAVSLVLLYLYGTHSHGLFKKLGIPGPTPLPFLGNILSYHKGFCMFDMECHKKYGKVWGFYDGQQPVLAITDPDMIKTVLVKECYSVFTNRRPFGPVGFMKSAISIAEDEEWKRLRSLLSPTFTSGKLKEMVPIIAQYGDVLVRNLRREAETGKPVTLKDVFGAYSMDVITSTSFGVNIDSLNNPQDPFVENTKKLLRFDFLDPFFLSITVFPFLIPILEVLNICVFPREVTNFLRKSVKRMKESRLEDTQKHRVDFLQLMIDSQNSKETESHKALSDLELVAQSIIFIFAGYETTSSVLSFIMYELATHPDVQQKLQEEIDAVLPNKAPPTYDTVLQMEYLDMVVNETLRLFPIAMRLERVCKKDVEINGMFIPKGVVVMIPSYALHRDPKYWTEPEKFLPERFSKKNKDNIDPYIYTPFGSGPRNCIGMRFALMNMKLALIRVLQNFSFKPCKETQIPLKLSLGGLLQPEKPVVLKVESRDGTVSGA
row,SMILES,AC50
1,COC(=O)[C@@H]1CC[C@H](C)[C@@H](c2ccc(C)cc2)N1C(=O)c1ccc(/C=N\OC[C@@H](O)COCc2ccco2)cc1,1.26 µM (inconclusive)
2,COC(=O)N1CCC2(CCCN(C(=O)Nc3cccc(C#N)c3)C2)CC1,6.31 µM (inconclusive)
3,Cc1ccc2nc(CC(=O)c3ccc4ccccc4c3)c(O)nc2c1,3.98 µM (inconclusive)
4,CC(C)OCCCNC(=O)C1CC(=O)N(C2CCCCCCC2)C1 (centres undefined),25.1 µM (inconclusive)

# System: not listed separately
# Assay: inhibitors of firefly luciferase expression or activity, dose response, H4 neuroglioma cells, luminescence (AID 1990)
# Format: functional, cell-based
# Settings: not given
row,SMILES,EC50
1,O=C(NCCCN1CCOCC1)c1ccc(-n2nc(C(F)(F)F)cc2-c2cccs2)cc1,11.6 µM (active)
2,O=C(NNC(=O)C12CC3CC(CC(C3)C1)C2)c1ccccc1F,17.7 µM (active)
3,CCOc1ccccc1-n1c(SCC(=O)Nc2ccc(CC)cc2)nc2nnc(C)c-2c1N,> 60 µM (not active)
4,Cc1cccc(-c2nnc3n2N=C(c2ccccc2)CS3)c1,> 120 µM (not active)

# System: not listed separately
# Assay: inhibitors of SNCA 5'UTR-driven reporter translation, confirmation, H4 neuroglioma cells, luminescence (AID 1988)
# Format: functional, cell-based
# Settings: not given
row,SMILES,EC50
1,O=C(NCCCN1CCOCC1)c1ccc(-n2nc(C(F)(F)F)cc2-c2cccs2)cc1,16.4 µM (active)
2,O=C(NNC(=O)C12CC3CC(CC(C3)C1)C2)c1ccccc1F,10.2 µM (active)
3,CCOc1ccccc1-n1c(SCC(=O)Nc2ccc(CC)cc2)nc2nnc(C)c-2c1N,9.77 µM (active)
4,Cc1cccc(-c2nnc3n2N=C(c2ccccc2)CS3)c1,12.4 µM (active)

# System: not listed separately
# Assay: inhibitors of intracellular T. cruzi replication, confirmation, NIH3T3 host cells, beta-gal luminescence (AID 2044);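 also: intracellular parasites grown in NIH/3T3 mouse fibroblasts as host cells; luminescent beta-galactosidase reporter signal from transgenic T. cruzi replicating inside host cells; inhibitors lower the luminescence signal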
# Format: functional, cell-based
# Settings: not given
row,SMILES,EC50
1,O=C(Nc1ccc2ccccc2c1)c1cn(-c2ccccc2)nc1-c1cccs1,1.86 µM (active)

# System: not listed separately
# Assay: cytotoxicity toward NIH3T3 fibroblasts, dose response, counter-screen, cell-based, ATP luminescence, mouse fibroblasts (AID 2010);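 also: cells exposed to compound for about 90 hours before reading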
# Format: functional
# Settings: not given
row,SMILES,EC50
1,O=C(Nc1ccc2ccccc2c1)c1cn(-c2ccccc2)nc1-c1cccs1,> 60 µM (not active)

# Target: Cytochrome P450 2C9 (Homo sapiens, UniProt P11712)
# Settings: not given
# Cytochrome P450 2C9, sequence (P11712 whole entry): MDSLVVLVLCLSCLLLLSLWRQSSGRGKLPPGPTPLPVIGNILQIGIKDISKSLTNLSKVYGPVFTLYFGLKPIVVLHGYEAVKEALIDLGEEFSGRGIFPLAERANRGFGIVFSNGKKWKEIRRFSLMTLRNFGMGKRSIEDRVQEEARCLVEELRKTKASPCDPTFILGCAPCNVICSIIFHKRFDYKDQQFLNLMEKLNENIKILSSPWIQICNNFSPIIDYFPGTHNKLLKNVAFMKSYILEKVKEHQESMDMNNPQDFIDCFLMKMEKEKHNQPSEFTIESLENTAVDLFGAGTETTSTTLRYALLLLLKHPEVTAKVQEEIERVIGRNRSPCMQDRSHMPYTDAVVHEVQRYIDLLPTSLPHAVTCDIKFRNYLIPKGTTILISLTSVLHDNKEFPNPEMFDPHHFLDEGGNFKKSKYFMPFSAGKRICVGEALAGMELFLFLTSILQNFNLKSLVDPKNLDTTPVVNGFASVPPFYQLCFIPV
row,SMILES,AC50
1,C[C@]12CC[C@H]3c4ccc(OC[C@H]5CO5)cc4CC[C@H]3[C@H]1CC[C@@H]2O,3.16 µM (inconclusive)
2,N#CN(CC(N)=O)c1nc(N2CCCCC2)nc(N2CCCCC2)n1,10 µM (inconclusive)

# System: not listed separately
# Assay: HEp-2 cell cytotoxicity, dose response, cytotoxicity control for RSV inhibitor project, HTS (AID 2410)
# Format: functional
# Settings: human respiratory syncytial virus
row,SMILES,CC50
1,CCN(C(=O)C1CCCN(c2ncnc3c2nc2n3CCCCC2)C1)c1cccc(Cl)c1 (centres undefined),10.7 µM (active)
2,COc1cccc(C(c2nnnn2Cc2ccco2)N2CCN(c3cccc(C)c3C)CC2)c1OC (centres undefined),18.5 µM (active)
3,O=C(Nc1ccc2ccccc2c1)c1cn(-c2ccccc2)nc1-c1cccs1,18.6 µM (active)
4,COc1cc2c(cc1OC)CN(C(=O)CCCOc1ccc(Cl)cc1Cl)CC2,24.7 µM (active)
5,Cc1noc(C)c1COC(=O)c1cccc(N(C)C)c1,11.9 µM (active)
6,CCN1CCN(Cc2ccc(NC(=O)c3cc(NC(=O)c4cnnc5ccccc45)cc(OC)c3)cc2C(F)(F)F)CC1,29 µM (active)
7,CCCCCc1nc2c(c(=O)c3ccccc3n2C)c(=O)n1Cc1ccc(OC)cc1,> 50 µM (active)
8,CCc1nc2c(c(=O)c3ccccc3n2C)c(=O)n1C1CCCCCC1,20.7 µM (active)
9,CCOc1ccccc1-n1c(SCC(=O)Nc2ccc(CC)cc2)nc2nnc(C)c-2c1N,45.1 µM (active)
